The numbers were not newly measured in patent US20230346989A1, “FLUOROCARBON NANOEMULSIONS AND USES THEREOF IN IMAGING” (The Regents of the University of California, priority 2020, published 2023), which cites them from elsewhere.

For one data set, the system named is tumors. The note with it: depending on the model; cited from earlier work.
The conditions of data set [1]: in vivo; cited from earlier work.

Turning to `C[C@H](NC(=O)c1c(N)nn2cccnc12)c1cc2cccc(C#Cc3cnn(C)c3)c2c(=O)n1-c1ccccc1` [IPI549], the “suppression of tumor growth” value with tumors is reported as 50-100%.
As to `FC(F)(F)C(F)(F)C(F)(F)C(F)(F)C(F)(F)C(F)(F)C(F)(F)C(F)(F)Br` [PFOB, perfluorooctyl bromide], the organ-retention half-life in data set [1] is 122 h.
